# “And” between values parts separate entries of the source, which are not always exact repeats. Identical values can stand only once.
# Tests used:
# HIV-1 = experiment: HIV control: HIV-1 viral load; type: in vivo, human; conditions: during the trial, patients receiving selumetinib + ART
# Experimental: HIV control was assessed by plotting longitudinal HIV-1 viral load and CD4 cell counts over time for the per-protocol population. Due to missing data at the pre-treatment cycle 1 […] visit, the CD4 cell counts from the screening visit were used as the baseline comparator. Paired t-tests were done to test the difference between CD4 cell counts at screening, cycle 3 day 22 and cycle 6 day 22. Due to multiple testing, a Bonferroni correction was applied to the significance threshold, calculated as 0.05 ÷ 2 = 0.025.
# HIV-1 viral load and CD4 counts were measured as per standard of care at hospital sites. To measure the concentration of angiogenesis markers, 8.5 ml blood was collected in BD vacutainer no-additive serum tubes. Samples were kept at room temperature for 30 minutes before centrifugation at 2000 g for 20 minutes at room temperature. Serum samples were then stored at -80 °C prior to analysis. Serum Ang-1, Ang-2 and TIE levels were assessed using commercial ELISAs (Thermo Fisher Scientifc hAng-1 (EHANGPT1), R&D DuoSet Ang-2 (DY623), eBioscience hTIE2 (BMS2042)), according to manufacturer instructions at laboratories at the University of Sheffield.
# p38 and JNK = tested on: p38 and JNK; design: method as in Banerji, et al.; conditions: protocol background; ref Banerji, et al.; cited from earlier work
# [1] = tested on: embryofoetal development and survival; design: method as in SCART protocol 7.3.1; conditions: at dose levels that do not induce maternal toxicity in mice; ref SCART protocol 7.3.1; cited from earlier work
# [2] = Selumetinib and N-desmethyl selumetinib plasma levels (phase I pharmacokinetics); type: in vivo; conditions: for Selumetinib Concentration, 2 Hours Post-Dose / Selumetinib Concentration, 6 Hours Post-Dose / Selumetinib Concentration, Day 1 Pre-Dose: plasma, individual patients; for Selumetinib Concentration, 2 Hours Post-Dose / Selumetinib Concentration, 6 Hours Post-Dose: cycle 1 day 1
# Experimental: Pharmacokinetic studies will be performed in phase I only . […]
# compartmental analysis will estimate C max, AUC0-24 , clearance and t1/2 from per ipheral blood measurements of both AZD 6244 and its metabolites pr e- dose, and at 2 and 6 hours post dose on day 1 and pre- dos e day 15. Labor atory bioanalysis will be performed by Quotient […]
# • Samples to be collected Cycle 1 Day 1 Pre -treatment, 2 hours and 6 hours post dose (aft er f irst set of tablets) pre- dose Cycle 1 Day 15.
# • 5mls of venous blood should be collected into a K2- ED TA BD vacutainer • Samples should be inverted several times to ensure adequate mix ing. […]
# • 2x 500µ l of plasma should be aliquoted to polypropylene eppendorf tubes.
# • Tubes should be individually labeled with the patient’s study number and sample time- point.
# • Samples should be stored at - 200C.
# • 1 x sample to be transferred on dry ice to Quotient Bioresearch for bioanalysis (all four sample time- points day 1 pre- d ose, and at 2 and 6 hours post d ose and pre- dose day 1 5 can be shipped together – please refer to the Laboratory Manual for c ourier details).
# • 1 x sample to be stored at the study centre as back-up.
# Japanese patients, NSCLC = tested on: Japanese patients, NSCLC; design: method as in study D1532C00067; conditions: selumetinib + Docetaxel, ref study D1532C00067; cited from earlier work
compound,measurement,setting,value
"Cn1cnc2c(F)c(Nc3ccc(Br)cc3Cl)c(C(=O)NOCCO)cc21 [selumetinib, 6-(4-Bromo-2-chloro-phenylamino)-7-fluro-3-methyl-3 H-benzoimidazole-5-carboxylic acid (2-hydroxy-ethoxy)-amide hydrogen sulphate]",HIV-1 viral load,HIV-1,remained undetectable
same,activity against other kinases including p38 and JNK,p38 and JNK,"inactive, or minimally active"
same,reproductive toxicology finding,[1],adverse effects on embryofoetal
same,plasma levels compared with other selumetinib studies,"[2]; phase I, comparison with refs 19-22",consistent with published reports from other selumetinib studies
same,"Selumetinib Concentration, 2 Hours Post-Dose",[2]; starting dose 50 mg bd,201 ng/mL and 304 ng/mL and 238 ng/mL and 274 ng/mL
same,"Selumetinib Concentration, 6 Hours Post-Dose",[2]; starting dose 50 mg bd,26.5 ng/mL and 48.5 ng/mL and 47.9 ng/mL
same,"Selumetinib Concentration, 2 Hours Post-Dose",[2]; starting dose 75 mg bd,1280 ng/mL and 1250 ng/mL and 361 ng/mL and 247 ng/mL and 504 ng/mL and 1040 ng/mL
same,"Selumetinib Concentration, 6 Hours Post-Dose",[2]; starting dose 75 mg bd,249 ng/mL and 180 ng/mL and 284 ng/mL and 452 ng/mL and 66.1 ng/mL
same,"Selumetinib Concentration, Day 1 Pre-Dose",[2]; starting dose 50 mg bd,BLQ
same,"Selumetinib Concentration, Day 1 Pre-Dose",[2]; starting dose 75 mg bd,BLQ
same,"febrile neutropenia, patients treated","Japanese patients, NSCLC",3 of 8

# From paper PMC11921695 (BMC Cancer, 2025)
